Data as given in article doi:10.1101/2024.08.19.608619, “Discovery of potent SARS-CoV-2 nsp3 macrodomain inhibitors uncovers lack of translation to cellular antiviral response” (bioRxiv, 2024).
≈ marks a conversion by molar mass, not a printed value. Where “and” joins values, the source holds several entries; their conditions need not be identical. Equal entries are not always repeated. Where two headings read alike, the source gives them in different places.

How the values were obtained:
[1] = In vitro kinetic solubility; conditions: In vitro kinetic solubility, ph 7.4
[2] = tested on: SARS-CoV-2, isolate USA-WA1/2020; assay: microbe, parasite or virus in culture; type: cell-based; conditions: HeLa-ACE2 SARS-CoV-2 antiviral effect without P-gp inhibitor; for perc_max_measured: maximum measured response of dose series; for perc_min_measured: minimum measured response of dose series; for EC50: read-out: ec50; for EC90: read-out: ec90
HeLa-ACE2 cells = conditions: for perc_max_measured: highest measured response of the dose series; for perc_min_measured: lowest measured response of the dose series
in vitro [3] = conditions: human, hela-ace2 cells, 50.0
[4] = Permeability Papp (AB) MDR1/MDCKII; conditions: for papp_a_to_b_mean: A to B; for perc_recovery_a_to_b_mean / perc_recovery_a_to_b_inhibitor_mean: recovery A to B; for papp_b_to_a_mean: B to A; for perc_recovery_b_to_a_mean / perc_recovery_b_to_a_inhibitor_mean: recovery B to A; for perc_recovery_a_to_b_inhibitor_mean / perc_recovery_b_to_a_inhibitor_mean: MDR1-MDCKII
in vitro [5] = assay: in vitro; set-up: Cytotoxicity in iPSC-derived pneumocytes, CC50; conditions: human, ipsc-derived pneumocytes, read-out: 50.0
Excerpt: Finally, we consider the hypothesis that interferon response triggers ADP-ribosylation, thus profiling the compounds in enhanced and physiologically relevant interferon environments could reveal detectable antiviral effects. […] Furthermore, HeLa-ACE2 cells, and all cancerous cell lines, display defective innate immune response ([1]). As such, we also assess our compound in a primary-like iPSC-derived pneumocyte system (Figure 7C), showing likewise a lack of antiviral activity in this physiologically relevant innate immunity system.

SARS-CoV-2 = assay: Antiviral effect in iPSC-derived pneumocyte system; type: cell-based; conditions: iPSC pneumocytes SARS-CoV-2 antiviral effect; for perc_max_measured: maximum measured response of dose series; for perc_min_measured: minimum measured response of dose series
LogD = conditions: pH 7.4; In vitro LogD
[6] = Hepatic microsomal stability, HLM; type: in vitro ADME, human; conditions: In vitro human liver microsomal stability; for perc_remaining_no_cofactor: no cofactor
iPSC pneumocytes = iPSC pneumocytes cytotoxicity; type: cell-based; conditions: for perc_max_measured: highest measured response of the dose series; for perc_min_measured: lowest measured response of the dose series
Excerpt: Supplement media-1.zip/Cytotoxicity.csv, table | column: cc10; cc50; perc_min_measured; perc_max_measured

[7] = Hepatic microsomal stability, MLM; type: in vitro ADME
[8] = protocol HeLa-ACE2 cytotoxicity
[9] = In vitro MDR1-MDCKII permeability, mean
[10] = protocol iPSC pneumocytes cytotoxicity
[11] = In vitro mouse liver microsomal stability
[12] = In vitro mouse liver microsomal stability, no cofactor
[13] = In vitro MDR1-MDCKII permeability, no inhibitor

| Structure (SMILES) | solubility_mean [1] [µM] | perc_max_measured [2] | perc_min_measured [2] | EC50 [2] | EC90 [2] | CC50 (HeLa-ACE2 cells; [8]) [µM] | perc_max_measured (HeLa-ACE2 cells; [8]) | perc_min_measured (HeLa-ACE2 cells; [8]) | perc_max_measured (SARS-CoV-2) | perc_min_measured (SARS-CoV-2) | logd (LogD) | clint [6] [µL/min/mg] | perc_remaining [6] [%] | t_half [6] [min] | perc_remaining_no_cofactor [6] [%] | clint [7, 11] [µL/min/mg] | perc_remaining [7, 11] [%] | t_half [7, 11] [min] | EC50 (SARS-CoV-2) [µM] | EC90 (SARS-CoV-2) [µM] | further results |
| --- | --- | --- | --- | --- | --- | --- | --- | --- | --- | --- | --- | --- | --- | --- | --- | --- | --- | --- | --- | --- | --- |
| CC(C)[C@@H](Nc1ncnc2[nH]c(-c3cnn(C)c3C#N)cc12)c1ccc2c(c1)OCCO2 (racemic) [ASAP-0008275] | 17 (≈ 7.3 µg/mL) | 109.522% | 3.811% and 0.0% | 1.73 µM and 1.72 µM | 4.31 µM and 4.23 µM | > 50 | 136.373% | 77.442% | 108.15% and 116.315% | 1.229% and 8.563% | 3.0 | 74.0 | 25.0 | 22.6 | 111.0 | 218.0 | 3.0 | 7.7 | – | – | cc10 (HeLa-ACE2 cells; [8]): > 50.0 µM; CC50 at 24 h (in vitro [3]): > 50 µM; papp_a_to_b_mean [4, 9]: 4.2 ×10⁻⁶ cm/s; perc_recovery_a_to_b_mean [4, 9]: 36.0%; CC50 (in vitro [5]; ASAP-0008327-001=ASAP-0008275-001): > 50 µM; CC50 (iPSC pneumocytes; [10]): > 50 µM; cc10 (iPSC pneumocytes; [10]): 13.408 µM; perc_max_measured (iPSC pneumocytes; [10]): 110.873% and 99.023%; perc_min_measured (iPSC pneumocytes; [10]): 69.382% and 78.095%; perc_remaining_no_cofactor ([7]; In vitro mouse liver microsomal stability; no cofactor): 97.0% |
| CNC(=O)Cn1cc(-c2cc3c(N[C@H](c4ccc5c(c4)S(=O)(=O)CCC5)C(C)C)ncnc3[nH]2)cn1 (single isomer, unassigned) [ASAP-0011171] | 323 (≈ 164 µg/mL) | 108.143% | 92.194% | > 20 µM | > 20 µM | > 20 | 102.722% | 92.936% | 106.027% | 60.326% | 2.4 | 92.0 | 23.0 | 18.1 | 101.0 | 111.0 | 16.0 | 15.0 | > 50 | > 50 | cc10 (HeLa-ACE2 cells; [8]): > 20.0 µM; papp_a_to_b_mean [4, 9]: 0.396 ×10⁻⁶ cm/s; perc_recovery_a_to_b_mean [4, 9]: 65.1%; CC50 (in vitro [5]; ASAP-0008327-001=ASAP-0011171-001): > 50 µM; CC50 (iPSC pneumocytes): > 50 µM; cc10 (iPSC pneumocytes): > 50.0 µM; perc_max_measured (iPSC pneumocytes): 98.842%; perc_min_measured (iPSC pneumocytes): 89.646%; perc_remaining_no_cofactor [7, 12]: 96.0% |
| CC(C)[C@@H](Nc1ncnc2[nH]c(-c3cnn(CC(N)=O)c3)cc12)c1ccc2c(n1)OCCO2 (single isomer, unassigned) [ASAP-0012315] | 395 (≈ 177 µg/mL) | 122.738% | 101.22% | > 20 µM | > 20 µM | – | 91.832% | 81.293% | 94.962% | 56.467% | 2.4 | 18.0 | 77.0 | 91.8 | 95.0 | 9.0 | 90.0 | 182.3 | > 50 | > 50 | papp_b_to_a_mean [4, 13]: 2.3 ×10⁻⁶ cm/s and 3.5 ×10⁻⁶ cm/s; perc_recovery_a_to_b_mean [4, 13]: 59.0% and 72.1% and 66.1%; perc_recovery_b_to_a_mean [4, 13]: 78.3% and 92.2%; perc_recovery_a_to_b_inhibitor_mean ([4]; with inhibitor Cyclosporin A): 64.5%; perc_recovery_a_to_b_inhibitor_mean ([4]; with inhibitor Verapamil): 96.8%; perc_recovery_b_to_a_inhibitor_mean ([4]; with inhibitor Cyclosporin A): 57.4%; perc_recovery_b_to_a_inhibitor_mean ([4]; with inhibitor Verapamil): 85.3%; CC50 (in vitro [5]; ASAP-0008327-001=ASAP-0012315-001): > 50 µM; CC50 (iPSC pneumocytes): > 50 µM; cc10 (iPSC pneumocytes): > 50.0 µM; perc_max_measured (iPSC pneumocytes): 105.354%; perc_min_measured (iPSC pneumocytes): 100.058%; perc_remaining_no_cofactor [7, 12]: 102.0% |
| CC(C)[C@@H](Nc1ncnc2[nH]c(C(=O)N[C@H]3CCN(C)C3)cc12)c1ccc2c(c1)S(=O)(=O)CCC2 (single isomer, unassigned) [ASAP-0012336] | 392 (≈ 195 µg/mL) | 102.123% | 84.181% | > 20 µM | > 20 µM | > 20 | 90.418% | 77.593% | 114.501% | 59.767% | 1.5 | 26.0 | 66.0 | 64.0 | 107.0 | 4.0 | 92.0 | 433.8 | > 50 | > 50 | cc10 (HeLa-ACE2 cells; [8]): > 20.0 µM; papp_b_to_a_mean [4, 13]: 0.038 ×10⁻⁶ cm/s; efflux_ratio [4, 13]: 0.5; perc_recovery_a_to_b_mean [4, 13]: 53.5% and 74.5%; perc_recovery_b_to_a_mean [4, 13]: 66.7%; perc_recovery_a_to_b_inhibitor_mean ([4]; with inhibitor Verapamil): 95.9%; perc_recovery_b_to_a_inhibitor_mean ([4]; with inhibitor Verapamil): 77.9%; CC50 (in vitro [5]; ASAP-0008327-001=ASAP-0012336-001): > 50 µM; CC50 (iPSC pneumocytes): > 50 µM; cc10 (iPSC pneumocytes): > 50.0 µM; perc_max_measured (iPSC pneumocytes): 106.87%; perc_min_measured (iPSC pneumocytes): 91.721%; perc_remaining_no_cofactor [7, 12]: 92.0% |
| CC(C)[C@@H](Nc1ncnc2[nH]c(C(N)=O)cc12)c1ccc2c(c1)OCCO2 [ASAP-0008438] | – | 108.483% and 95.443% | – | > 20 µM | > 20 µM | – | 102.95% and 76.872% | 63.007% and 58.0% | 162.718% | 51.066% | – | – | – | – | – | – | – | – | > 50 | > 50 | cc10 (HeLa-ACE2 cells): < 0.082 µM; cc50 (HeLa-ACE2 cells): < 0.082 µM; CC50 (in vitro [5]; ASAP-0008327-001=ASAP-0008438-001): > 50 µM; CC50 (iPSC pneumocytes; [10]): > 50 µM; cc10 (iPSC pneumocytes; [10]): > 50.0 µM; perc_max_measured (iPSC pneumocytes; [10]): 107.376%; perc_min_measured (iPSC pneumocytes; [10]): 74.883% |
| Cc1ncc(-c2cc3c(N[C@@H](c4ccc5c(c4)OCCO5)C(C)C)ncnc3[nH]2)cn1 [ASAP-0008490] | – | 95.537% and 100.014% | – | 4.51 µM | > 20 µM | – | 110.055% and 97.495% | 79.698% and 83.505% | 160.084% | 9.251% | – | – | – | – | – | – | – | – | 15.7 | 36 | CC50 (HeLa-ACE2 cells): > 20 µM; cc10 (HeLa-ACE2 cells): > 20.0 µM; CC50 at 24 h (in vitro [3]): > 20 µM; CC50 (in vitro [5]; ASAP-0008327-001=ASAP-0008490-001): > 50 µM; CC50 (iPSC pneumocytes; [10]): > 50 µM; cc10 (iPSC pneumocytes; [10]): > 50.0 µM; perc_max_measured (iPSC pneumocytes; [10]): 94.665%; perc_min_measured (iPSC pneumocytes; [10]): 63.131% |
